Data from PubChem BioAssay AID2060909 (Molecular Pharmacology Branch, DTP, NCI, 2025).

Test system: 362531-283-R-J2-PDC complex spheroid viability
Experiment: Anticancer human tumor 362531-283-R-J2-PDC patient-derived colon adenocarcinoma cell line growth inhibition [RAS]
Settings: for IC50: curve of first compound; for viability, T/C: stronger effect = lower value
Method in brief: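 Multi-cell-type spheroids: tumor cells plus HUVEC endothelial cells and mesenchymal stem cells. RAS-pathway inhibitors were combined with targeted agents, each dosed in half-log steps down from clinical Cmax, or from 10 microM when Cmax was unknown.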

[1] = second compound 0.00316 µM, first compound 0.0316 µM
[2] = second compound 0.00316 µM, first compound 0.1 µM
[3] = second compound 0.01 µM, first compound 0.0316 µM
[4] = second compound 0.01 µM, first compound 0.1 µM
[5] = second compound 0.0316 µM, first compound 0.0316 µM
[6] = second compound 0.0316 µM, first compound 0.1 µM
[7] = second compound 0.1 µM, first compound 0.0316 µM
[8] = second compound 0.1 µM, first compound 0.1 µM
[9] = second compound 0.316 µM, first compound 0.0316 µM
[10] = second compound 0.316 µM, first compound 0.1 µM
[11] = second compound 1 µM, first compound 0.0316 µM
[12] = second compound 1 µM, first compound 0.1 µM
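Further: spheroids exposed to the agents for 7 days before readout.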
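Wherever viability, T/C is given: luminescence viability as percent of DMSO vehicle control wells.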

Q: Which IC50 (second compound 0.00316 µM) does the source give for `CC(C)NCC(C(=O)N1CCN(c2ncnc3c2C(C)CC3O)CC1)c1ccc(Cl)cc1` (centres undefined) + C=CC(=O)N1CCN(c2nc(OCC3CCCN3C)nc3c(F)c(-c4nc(N)cc(C)c4C(F)(F)F)c(Cl)cc23)C(C)C1 here?
A: Its IC50 is > 10 µM.

Q: What about the IC50 (second compound 0.01 µM) of the same compound?
A: Its IC50 is > 10 µM.

Q: What about the IC50 (second compound 0.0316 µM) of the same compound?
A: The IC50 was > 10 µM.

Q: What about the IC50 (second compound 0.1 µM) of the same compound?
A: The IC50 was > 10 µM.

Q: And the IC50 (second compound 0.316 µM)?
A: The IC50 was > 10 µM.

Q: What about the IC50 (second compound 1 µM) of the same compound?
A: Its IC50 is > 10 µM.

Q: And the viability, T/C [1]?
A: The viability, T/C was 109%.

Q: And the viability, T/C [2]?
A: Its viability, T/C is 98.7%.

Q: And the viability, T/C (second compound 0.00316 µM, first compound 0.316 µM)?
A: Its viability, T/C is 103%.

Q: And the viability, T/C (second compound 0.00316 µM, first compound 1 µM)?
A: The viability, T/C was 91.2%.

Q: What about the viability, T/C (second compound 0.00316 µM, first compound 3.16 µM) of the same compound?
A: The viability, T/C was 97%.

Q: And the viability, T/C (second compound 0.00316 µM, first compound 10 µM)?
A: Its viability, T/C is 92.5%.

Q: And the viability, T/C [3]?
A: The viability, T/C was 93.7%.

Q: What about the viability, T/C [4] of the same compound?
A: The viability, T/C was 101%.

Q: What about the viability, T/C (second compound 0.01 µM, first compound 0.316 µM) of the same compound?
A: Its viability, T/C is 90.7%.

Q: And the viability, T/C (second compound 0.01 µM, first compound 1 µM)?
A: Its viability, T/C is 94.6%.

Q: What about the viability, T/C (second compound 0.01 µM, first compound 3.16 µM) of the same compound?
A: Its viability, T/C is 106%.

Q: What about the viability, T/C (second compound 0.01 µM, first compound 10 µM) of the same compound?
A: Its viability, T/C is 107%.

Q: What about the viability, T/C [5] of the same compound?
A: Its viability, T/C is 90.5%.

Q: And the viability, T/C [6]?
A: The viability, T/C was 104%.

Q: And the viability, T/C (second compound 0.0316 µM, first compound 0.316 µM)?
A: The viability, T/C was 101%.

Q: And the viability, T/C (second compound 0.0316 µM, first compound 1 µM)?
A: The viability, T/C was 102%.

Q: What about the viability, T/C (second compound 0.0316 µM, first compound 3.16 µM) of the same compound?
A: Its viability, T/C is 103%.

Q: What about the viability, T/C (second compound 0.0316 µM, first compound 10 µM) of the same compound?
A: The viability, T/C was 94.9%.

Q: And the viability, T/C [7]?
A: The viability, T/C was 94.2%.

Q: What about the viability, T/C [8] of the same compound?
A: The viability, T/C was 94.5%.

Q: What about the viability, T/C (second compound 0.1 µM, first compound 0.316 µM) of the same compound?
A: Its viability, T/C is 105%.

Q: What about the viability, T/C (second compound 0.1 µM, first compound 1 µM) of the same compound?
A: Its viability, T/C is 96.8%.

Q: And the viability, T/C (second compound 0.1 µM, first compound 3.16 µM)?
A: The viability, T/C was 111%.

Q: And the viability, T/C (second compound 0.1 µM, first compound 10 µM)?
A: Its viability, T/C is 102%.

Q: What about the viability, T/C [9] of the same compound?
A: The viability, T/C was 95.4%.

Q: And the viability, T/C [10]?
A: The viability, T/C was 105%.

Q: What about the viability, T/C (second compound 0.316 µM, first compound 0.316 µM) of the same compound?
A: The viability, T/C was 101%.

Q: What about the viability, T/C (second compound 0.316 µM, first compound 1 µM) of the same compound?
A: The viability, T/C was 96.8%.

Q: And the viability, T/C (second compound 0.316 µM, first compound 3.16 µM)?
A: Its viability, T/C is 111%.

Q: And the viability, T/C (second compound 0.316 µM, first compound 10 µM)?
A: Its viability, T/C is 92.5%.

Q: What about the viability, T/C [11] of the same compound?
A: The viability, T/C was 98.6%.

Q: What about the viability, T/C [12] of the same compound?
A: Its viability, T/C is 101%.

Q: And the viability, T/C (second compound 1 µM, first compound 0.316 µM)?
A: The viability, T/C was 95.7%.

Q: What about the viability, T/C (second compound 1 µM, first compound 1 µM) of the same compound?
A: The viability, T/C was 102%.

Q: What about the viability, T/C (second compound 1 µM, first compound 3.16 µM) of the same compound?
A: The viability, T/C was 104%.

Q: What about the viability, T/C (second compound 1 µM, first compound 10 µM) of the same compound?
A: Its viability, T/C is 86.8%.

Q: What does the source list for `CC(C)n1nc(-c2ccc3oc(N)nc3c2)c2c(N)ncnc21` + C=CC(=O)N1CCN(c2nc(OCC3CCCN3C)nc3c(F)c(-c4nc(N)cc(C)c4C(F)(F)F)c(Cl)cc23)C(C)C1?
A: IC50 (second compound 0.00316 µM): > 0.1 µM; IC50 (second compound 0.01 µM): > 0.1 µM; IC50 (second compound 0.0316 µM): > 0.1 µM; IC50 (second compound 0.1 µM): > 0.1 µM; IC50 (second compound 0.316 µM): > 0.1 µM; IC50 (second compound 1 µM): > 0.1 µM; viability, T/C (second compound 0.00316 µM, first compound 0.000316 µM): 97.8%; viability, T/C (second compound 0.00316 µM, first compound 0.001 µM): 91.8%; viability, T/C (second compound 0.00316 µM, first compound 0.00316 µM): 101%; viability, T/C (second compound 0.00316 µM, first compound 0.01 µM): 89.2%; viability, T/C [1]: 62.9%; viability, T/C [2]: 97.1%; viability, T/C (second compound 0.01 µM, first compound 0.000316 µM): 93.5%; viability, T/C (second compound 0.01 µM, first compound 0.001 µM): 92.2%; viability, T/C (second compound 0.01 µM, first compound 0.00316 µM): 105%; viability, T/C (second compound 0.01 µM, first compound 0.01 µM): 87.3%; viability, T/C [3]: 54.9%; viability, T/C [4]: 89.7%; viability, T/C (second compound 0.0316 µM, first compound 0.000316 µM): 100%; viability, T/C (second compound 0.0316 µM, first compound 0.001 µM): 95.9%; viability, T/C (second compound 0.0316 µM, first compound 0.00316 µM): 102%; viability, T/C (second compound 0.0316 µM, first compound 0.01 µM): 80.7%; viability, T/C [5]: 65.9%; viability, T/C [6]: 101%; viability, T/C (second compound 0.1 µM, first compound 0.000316 µM): 91.9%; viability, T/C (second compound 0.1 µM, first compound 0.001 µM): 93.1%; viability, T/C (second compound 0.1 µM, first compound 0.00316 µM): 99.6%; viability, T/C (second compound 0.1 µM, first compound 0.01 µM): 87%; viability, T/C [7]: 86.2%; viability, T/C [8]: 64.5%; viability, T/C (second compound 0.316 µM, first compound 0.000316 µM): 107%; viability, T/C (second compound 0.316 µM, first compound 0.001 µM): 106%; viability, T/C (second compound 0.316 µM, first compound 0.00316 µM): 104%; viability, T/C (second compound 0.316 µM, first compound 0.01 µM): 106%; viability, T/C [9]: 68.2%; viability, T/C [10]: 82.7%; viability, T/C (second compound 1 µM, first compound 0.000316 µM): 107%; viability, T/C (second compound 1 µM, first compound 0.001 µM): 105%; viability, T/C (second compound 1 µM, first compound 0.00316 µM): 97%; viability, T/C (second compound 1 µM, first compound 0.01 µM): 107%; viability, T/C [11]: 49.6%; viability, T/C [12]: 81.5%
